We go through one molecule from US11180499B2, “Phosphodiesterase inhibitors” (BOARD OF REGENTS OF THE UNIVERSITY OF NEBRASKA, priority 2018, dated 2021).

Molecules are shown by their SMILES.

One assay has as its target T1, PDE4B (Homo sapiens, UniProt Q07343).
T1 construct: purchased BPS Bioscience, San Diego
The assay is described as follows: In vitro PDE4 inhibition study, PDE4B (BPS Bioscience). The assay is classed as binding. The method, then:
The IC50 values of Compound 8 on PDE4 isoforms were determined by BPS Bioscience, San Diego. In brief, coat proteins (PDE4 isoforms) were added into the plate in a volume of 50 μl (2-5 ng/μl) at 4° C. overnight. The next day, Compound 8 was added to the coated plate with varying concentrations followed by addition of the corresponding biotinylated binding partner. The reaction was incubated for 2 hours at room temperature. Binding assays were performed in duplicate at each concentration and the plates were read by using Synergy 2 BioTek plate reader. The luminescence data were analyzed using the Graphpad Prism. […] Data for a reference compounds or antibodies are included as a control for inhibition. “ND” indicates the compound was not tested.

A further assay concerns the target T2, PDE4B1 (Homo sapiens, UniProt Q07343).
T2 construct: expressed in transfected cells; host or cells: HEK293
Description: Cell-based PDE4B assay (HEK293, PDE4B1 vector, CRE luciferase reporter, forskolin). The conditions noted are these: versus apremilast. How it is done: Cells were incubated at 37° C. and 5% CO2 overnight. […] Cell based assays were performed in triplicate at each concentration.

Assay [1] relates to cocaine self-administered mice. Description: Cocaine self-administration (seeking and taking behavior). The class given is in vivo, mouse. The conditions noted are these: i.p., 30 min before 2 h FR1 session. The method, then: (a) Surgery procedure: WT mice (10-12 weeks, both genders) were implanted with permanently indwelling catheters (Plastics one) into the right jugular vein under a combination of ketamine hydrochloride ([…], i. p.) and xylazine ([…], i.p.) anesthesia. The catheter is tied to the vein with surgical silk and is passed subcutaneously to the back of the mouse where the catheter is affixed to a small plastic pedestal (26 G, Plastics One Company). After the surgery, the catheters were flushed daily with heparin (30 IU/mi) to avoid clotting. Mice were allowed at least 7 days of recovery in their home before the start of the experiments.
(b) The establishment of cocaine self-administered mice: Mice were individually put into sound-mitigation cubicles (Coulbourne Instrument) for the training of self-administered cocaine (1.0 mg/kg/infusion). […] A timeout period of 15 seconds followed each drug injection. All responses were recorded automatically using a computer interface and Graphic State Notation 4 software (Coulbourne Instrument). Mice were trained to self-administer cocaine during one daily session under a fixed ratio 1 (FR1) schedule. […]
(c) The effects of Compound 8 on cocaine-mediated seeking and taking behavior. […] The numbers of active nose-poke and cocaine infusions were recorded. […]

The next assay has as its system WT mice. The assay is described as follows: Locomotor analysis (cocaine-induced hyperlocomotion, open field). The class given is in vivo, mouse. Conditions: for Locomotor activity of compound alone: Compound 8 + saline. How it is done: Locomotor analysis: WT mice (both gender, n=6-8) were divided into four groups receiving various treatments: (1) vehicle+saline; (2) vehicle+cocaine; (3) Compound 8+saline; and (4) Compound 8+cocaine. Cocaine was administered at 20 mg/kg (i.p.) and Compound 8 was used at two different doses 5 or 10 mg/kg (i.p.). Compound 8 was firstly injected into the mice and 30 min later followed with cocaine administration. To investigate the effects of Compound 8 on acute locomotor response, immediately following cocaine injection, mice were put into the open field apparatus (Truescan, Coulbourn instrument) to detect locomotor activity for 45 min. The TruScan photobeam activity system consists of a clear arena with infrared sensors located on a ring 3 cm above floor level. There are 16 beams spaced 1 inch apart on the sensor ring that are used to detect movements by mice. […] To investigate the effects of Compound 8 on locomotor sensitization, mice were repeatedly injected with Compound 8 and cocaine for 7 consecutive days and the locomotor responses were recorded every other day.

T1 sequence (Q07343 whole entry): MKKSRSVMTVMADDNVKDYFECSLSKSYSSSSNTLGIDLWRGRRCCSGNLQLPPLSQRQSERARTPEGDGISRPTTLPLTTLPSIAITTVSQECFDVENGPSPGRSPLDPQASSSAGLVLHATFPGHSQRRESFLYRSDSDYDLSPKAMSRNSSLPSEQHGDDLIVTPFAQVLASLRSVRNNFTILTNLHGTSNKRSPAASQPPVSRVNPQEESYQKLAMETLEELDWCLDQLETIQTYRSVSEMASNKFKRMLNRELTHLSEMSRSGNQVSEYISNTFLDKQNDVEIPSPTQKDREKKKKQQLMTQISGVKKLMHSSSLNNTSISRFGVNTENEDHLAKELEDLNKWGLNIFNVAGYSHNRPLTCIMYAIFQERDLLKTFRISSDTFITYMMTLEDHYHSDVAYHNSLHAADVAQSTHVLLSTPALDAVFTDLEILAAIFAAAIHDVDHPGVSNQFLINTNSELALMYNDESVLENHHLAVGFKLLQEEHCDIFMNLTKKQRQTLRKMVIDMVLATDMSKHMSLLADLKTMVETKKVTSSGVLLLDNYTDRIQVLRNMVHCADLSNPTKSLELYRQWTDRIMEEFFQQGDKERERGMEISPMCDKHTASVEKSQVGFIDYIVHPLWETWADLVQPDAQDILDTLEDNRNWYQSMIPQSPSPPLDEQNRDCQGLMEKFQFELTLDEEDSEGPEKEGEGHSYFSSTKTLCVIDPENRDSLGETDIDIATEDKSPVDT
T2 sequence (Q07343 whole entry): as above

Consider `O=C(c1cc2cccnc2n1-c1ccc(Cl)c(Cl)c1)N1CC(F)(F)C1` [Compound 8, (1-(3,4-dichlorophenyl)-1H-pyrrolo[2,3-b]pyridin-2-yl)(3,3-difluoroazetidin-1-yl)methanone], for which the IC50 on PDE4B was determined as 140 nM. For the same molecule, on PDE4B1, the “EC50 for PDE4B inhibition relative to apremilast” value is “ten-fold lower EC50”. In assay [1], the “Cocaine-mediated seeking and taking behavior (active nose-pokes, cocaine infusions)” value is “significantly decreased”. Moreover, the Cocaine-induced hyperlocomotion result in the assay with WT mice (5 or 10 mg/kg i.p. 30 min before cocaine 20 mg/kg i.p.) is listed as “inhibited the cocaine induce hyperlocomotion”. Also, the entries for the “Locomotor activity of compound alone” value in the assay on WT mice and with WT mice (listed as compound 8) were “without any increase alone” and “without any increase by itself”, respectively.

Broadly, the IC50 is the concentration needed to halve the response being measured.
